Test results as given in ChEMBL document CHEMBL5126645, “Cancer-Cell-Selective Targeting by Arylcyclopropylamine-Vorinostat Conjugates” (ACS Med Chem Lett, 2022).
Active and inactive are the calls of the source. The rule behind the calls is not given here.

Columns and labels:
MDA-MB-231 [1] = test: cells; type: functional; conditions: Homo sapiens, MDA-MB-231, 72 h; time 3 day
Description: Antiproliferative activity against human MDA-MB-231 cells assessed as inhibition of cell growth incubated for 3 days by alamar blue assay

NCI-H526 = test: cells; type: functional; conditions: Homo sapiens, NCI-H526, 72 h; time 3 day
Description: Antiproliferative activity against human NCI-H526 cells assessed as inhibition of cell growth incubated for 3 days by alamar blue assay

[2] = target: T1, Lysine-specific histone demethylase 1A (Homo sapiens, UniProt O60341)
Description: Inhibition of LSD1 (unknown origin) using H3K4me2 peptide as substrate preincubated for 15 mins followed by substrate addition and measured after 30 mins by fluorescence based analysis

[3] = target: T1, Lysine-specific histone demethylase 1A; test: Potency index, ratio of phenylcyclopropylamine IC50 to test compound IC50 for inhibition of LSD1 (unknown origin) using H3K4me2 peptide as substrate preincubated for 15 mins followed by substrate addition and measured after 30 mins by fluorescence based analysis; conditions: time 45.0 min
in vitro [4] = conditions: human, HMEC cells
Description: Cytotoxicity against HMEC cells assessed as inhibition of cell growth incubated for 3 days by alamar blue assay

[5] = Stability of compound in buffer at pH 7.4; type: physicochemical
[6] = target: T1, Lysine-specific histone demethylase 1A; test: Prodrug conversion assessed as LSD1 (unknown origin)-mediated vorinostat release incubated for 24 hrs by HPLC analysis; type: ADME
in vitro [7] = conditions: human, HMEC cells versus MDA-MB-231 cells
Description: Selectivity index, ratio of IC50 for cytotoxicity against HMEC cells to GI50 for antiproliferative activity against human MDA-MB-231 cells

[8] = Stability of compound in HEPES buffer at pH 7.4 at 100 uM incubated for 24 hrs by HPLC analysis; type: physicochemical; conditions: pH 7.4, 24 h
in vitro [9] = conditions: human, HMEC cells versus NCI-H526 cells
Description: Selectivity index, ratio of IC50 for cytotoxicity against HMEC cells to GI50 for antiproliferative activity against human NCI-H526 cells

[10] = target: Histone deacetylase 1 (Homo sapiens) (UniProt Q13547); test: Inhibition of HDAC1 in human NCI-H526 cells assessed as increase in H3K9 acetylation at 16 uM measured after 24 to 72 hrs by Western blot analysis; type: cell-based; conditions: time 24-72 hrs
[11] = target: Histone deacetylase 1 (Homo sapiens) (UniProt Q13547); test: Potency index, ratio of vorinostat IC50 to test compound IC50 for inhibition of HDAC1 human NCI-H526 cells measured after 24 to 72 hrs by Western blot analysis; type: cell-based; conditions: time 24-72 hrs
[12] = target: Histone deacetylase 1 (Homo sapiens) (UniProt Q13547); test: Inhibition of HDAC1 in human NCI-H526 cells assessed as increase in H3K4 methylation at 16 uM measured after 24 to 72 hrs by Western blot analysis; type: cell-based; conditions: time 24-72 hrs
MDA-MB-231 [13] = test: Synergistic antiproliferative activity against human MDA-MB-231 cells assessed as inhibition of cell growth incubated for 3 days in presence of LSD1 inhibitor, NCD38 by alamar blue assay; type: functional, cell-based; conditions: time 3.0 day
MDA-MB-231 [14] = test: Synergistic antiproliferative activity against human MDA-MB-231 cells assessed as inhibition of cell growth incubated for 3 days in presence of vorinostat by alamar blue assay; type: functional, cell-based; conditions: time 3.0 day
MDA-MB-231 [15] = test: Additive antiproliferative activity against human MDA-MB-231 cells assessed as inhibition of cell growth incubated for 3 days in presence of 4-(Chloromethyl)phenyl acetate by alamar blue assay; type: functional, cell-based; conditions: time 3.0 day

Sequence of Histone deacetylase 1 (Homo sapiens) (Q13547 whole entry): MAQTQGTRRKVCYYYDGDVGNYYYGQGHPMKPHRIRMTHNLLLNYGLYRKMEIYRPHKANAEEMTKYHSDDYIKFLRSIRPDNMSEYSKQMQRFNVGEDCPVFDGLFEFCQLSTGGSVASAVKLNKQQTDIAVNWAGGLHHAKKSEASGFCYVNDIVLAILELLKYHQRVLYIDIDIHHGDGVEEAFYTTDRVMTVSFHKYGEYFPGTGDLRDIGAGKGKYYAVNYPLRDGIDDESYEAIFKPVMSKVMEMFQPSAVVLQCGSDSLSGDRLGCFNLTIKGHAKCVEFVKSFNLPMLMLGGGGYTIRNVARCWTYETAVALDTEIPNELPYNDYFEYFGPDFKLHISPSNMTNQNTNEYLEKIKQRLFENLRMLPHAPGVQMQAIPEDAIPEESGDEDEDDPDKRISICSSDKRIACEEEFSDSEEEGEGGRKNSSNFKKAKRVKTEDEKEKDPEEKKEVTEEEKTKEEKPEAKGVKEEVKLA

Structure (SMILES)	GI50 (MDA-MB-231 [1]) [µM]	GI50 (NCI-H526) [µM]	IC50 [2] [µM]	IC50 at 3 days (in vitro [4]) [µM]	selectivity ratio (in vitro [7])	other results
CC(=O)Oc1ccc(CCl)cc1	2.05	2.02	–	–	–	–
CN(CCN(C)C1CC1c1ccccc1)C(=O)Oc1ccc(CONC(=O)CCCCCCC(=O)Nc2ccccc2)cc1 (centres undefined)	34.3	–	1.29	> 100	> 2.92	Ratio IC50 [3]: 19; Stability [5]: Stable; Drug metabolism [6]: Metabolite_Detected
CNC(=O)c1cccc(-c2ccc([C@@H]3C[C@H]3N(C)CCN(C)C(=O)Oc3ccc(CONC(=O)CCCCCCC(=O)Nc4ccccc4)cc3)cc2)c1	–	–	0.444	–	–	–
CNC(=O)c1cccc(-c2ccc([C@H]3C[C@@H]3N(C)CCN(C)C(=O)Oc3ccc(CONC(=O)CCCCCCC(=O)Nc4ccccc4)cc3)cc2)c1	–	–	0.457	–	–	–
CN(CCN(C)C1CC1c1ccccc1)C(=O)ONC(=O)CCCCCCC(=O)Nc1ccccc1 (centres undefined)	–	–	–	–	–	Stability [8]: Unstable
CNC(=O)c1cccc(-c2ccc(C3CC3N(C)CCN(C)C(=O)Oc3ccc(CONC(=O)CCCCCCC(=O)Nc4ccccc4)cc3)cc2)c1 (racemic)	4.49	1	0.126	> 100	> 22.3	selectivity ratio (in vitro [9]): > 100; inhibition [10]: Active; Ratio IC50 [11]: 40; inhibition [12]: Active; Activity (MDA-MB-231 [13]): Active; Activity (MDA-MB-231 [14]): Active; Activity (MDA-MB-231 [15]): Active
